Measured values: ChEMBL document CHEMBL5579860, “Design and synthesis of novel Thiazolo[5,4-b]pyridine derivatives as potent and selective EGFR-TK inhibitors targeting resistance Mutations in non-small cell lung cancer” (Eur J Med Chem, 2024)
The source made the active and inactive calls. The calls are words filed in the database; no cut-off is given here.

Assays:
A549 = assay: Anticancer activity against human A549 cells incubated for 72 hrs by MTT assay; assay type: functional, cell-based; settings: A549, 72 h
NCI-H1975 = assay: Anticancer activity against human NCI-H1975 cells incubated for 72 hrs by MTT assay; assay type: functional, cell-based; settings: NCI-H1975, 72 h
HCC827 [1] = assay: Anticancer activity against human HCC827 cells incubated for 72 hrs by MTT assay; assay type: functional, cell-based; settings: HCC827, 72 h
[2] = Cytotoxicity against human BEAS-2B cells; assay type: toxicity, cell-based
HCC827 [3] = assay: Induction of apoptosis in human HCC827 cells assessed as late apoptotic cells at IC50 concentration incubated for 24 to 48 hrs by Annexin V-FITC/PI staining based flow cytometry ( Rvb = 1.6% ); assay type: functional; settings: time 24-48 hrs
HCC827 [4] = assay: Induction of apoptosis in human HCC827 cells assessed as early apoptotic cells at IC50 concentration incubated for 24 to 48 hrs by Annexin V-FITC/PI staining based flow cytometry ( Rvb = 2.0% ); assay type: functional; settings: time 24-48 hrs
[5] = molecular target: Epidermal growth factor receptor (Homo sapiens) (UniProt P00533); assay: Inhibition of EGFR autophosphorylation in human HCC827 cells at 0.01 to 1.00 uM incubated for 8 hrs by Western blot analysis; assay type: cell-based; settings: dose 0.01-1 µM
Chain of Epidermal growth factor receptor (Homo sapiens) (P00533 whole entry): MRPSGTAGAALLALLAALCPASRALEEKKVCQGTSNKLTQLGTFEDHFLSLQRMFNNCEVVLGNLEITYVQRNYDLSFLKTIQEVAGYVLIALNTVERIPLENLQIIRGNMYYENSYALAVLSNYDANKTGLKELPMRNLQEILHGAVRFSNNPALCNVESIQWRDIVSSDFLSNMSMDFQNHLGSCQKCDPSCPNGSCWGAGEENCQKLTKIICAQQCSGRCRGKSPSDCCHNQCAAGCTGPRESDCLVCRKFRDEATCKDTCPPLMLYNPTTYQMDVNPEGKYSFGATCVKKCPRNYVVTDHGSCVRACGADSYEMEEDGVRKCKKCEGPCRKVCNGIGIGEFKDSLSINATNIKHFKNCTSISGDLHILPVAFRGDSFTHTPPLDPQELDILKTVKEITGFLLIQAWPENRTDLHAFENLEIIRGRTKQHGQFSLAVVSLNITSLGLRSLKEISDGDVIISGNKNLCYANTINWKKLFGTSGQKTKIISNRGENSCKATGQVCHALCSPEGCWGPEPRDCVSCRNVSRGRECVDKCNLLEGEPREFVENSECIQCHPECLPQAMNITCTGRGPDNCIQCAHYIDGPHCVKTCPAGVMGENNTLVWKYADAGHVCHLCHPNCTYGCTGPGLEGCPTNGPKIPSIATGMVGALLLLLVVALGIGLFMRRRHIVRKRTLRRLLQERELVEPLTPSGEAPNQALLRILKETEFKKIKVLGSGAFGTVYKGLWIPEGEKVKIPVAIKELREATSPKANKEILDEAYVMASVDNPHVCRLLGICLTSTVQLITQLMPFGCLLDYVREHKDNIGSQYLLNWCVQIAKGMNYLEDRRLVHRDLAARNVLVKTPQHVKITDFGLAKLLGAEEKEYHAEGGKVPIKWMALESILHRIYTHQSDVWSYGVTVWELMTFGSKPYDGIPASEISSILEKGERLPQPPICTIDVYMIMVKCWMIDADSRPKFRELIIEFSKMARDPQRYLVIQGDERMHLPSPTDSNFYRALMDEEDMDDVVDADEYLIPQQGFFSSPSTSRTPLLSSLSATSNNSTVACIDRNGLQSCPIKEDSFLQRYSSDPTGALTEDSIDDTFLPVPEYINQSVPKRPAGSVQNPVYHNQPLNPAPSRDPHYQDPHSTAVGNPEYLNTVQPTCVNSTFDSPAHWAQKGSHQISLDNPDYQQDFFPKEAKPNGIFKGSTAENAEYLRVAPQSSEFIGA

| SMILES | IC50 (A549) | IC50 (NCI-H1975) | IC50 (HCC827 [1]) | inhibition [5] | IC50 [2] | Activity (HCC827 [3]) | Activity (HCC827 [4]) |
| --- | --- | --- | --- | --- | --- | --- | --- |
| Cc1c(NS(=O)(=O)c2cnn(C)c2)cccc1-c1nc2cccnc2s1 | 4230 nM | 3300 nM | 2180 nM |  |  |  |  |
| COc1ccc(F)cc1S(=O)(=O)Nc1cccc(-c2nc3cc(CN4CCN(C)CC4)cnc3s2)c1C | 8500 nM | 4600 nM | 4500 nM |  |  |  |  |
| Cc1c(NS(=O)(=O)C2CCOCC2)cccc1-c1nc2cccnc2s1 | 4180 nM | 3120 nM | 2110 nM |  |  |  |  |
| Cc1c(NS(=O)(=O)c2ccccc2)cccc1-c1nc2cccnc2s1 | 4600 nM | 3320 nM | 2200 nM |  |  |  |  |
| Cc1c(NS(=O)(=O)c2ccccc2OC(F)(F)F)cccc1-c1nc2cccnc2s1 | 3190 nM | 2180 nM | 1520 nM |  |  |  |  |
| C=CC(=O)Nc1cc(Nc2nccc(-c3cn(C)c4ccccc34)n2)c(OC)cc1N(C)CCN(C)C [OSIMERTINIB] | 860 nM |  | 7 nM |  |  |  |  |
| Cc1c(NS(=O)(=O)c2cc(F)ccc2F)cccc1-c1nc2cc(C#N)cnc2s1 | 1280 nM | 280 nM | 94 nM |  |  |  |  |
| Cc1c(NS(=O)(=O)c2cc(F)ccc2F)cccc1-c1nc2cc(-c3ccc(C#N)nc3)cnc2s1 | 910 nM | 120 nM | 41 nM |  | 37000 nM |  |  |
| Cc1c(NS(=O)(=O)c2cccc(Cl)c2)cccc1-c1nc2cccnc2s1 | 3280 nM | 2210 nM | 1590 nM |  |  |  |  |
| Cc1c(NS(=O)(=O)c2ccc(F)c(C#N)c2)cccc1-c1nc2cccnc2s1 | 3270 nM | 2100 nM | 1460 nM |  |  |  |  |
| Cc1c(NS(=O)(=O)c2ccc(F)cc2F)cccc1-c1nc2cccnc2s1 | 3170 nM | 2110 nM | 1400 nM |  |  |  |  |
| Cc1c(NS(=O)(=O)c2cc(F)ccc2F)cccc1-c1nc2cc(-c3cncnc3)cnc2s1 | 880 nM | 110 nM | 21 nM |  | 42100 nM |  |  |
| Cc1c(NS(=O)(=O)Cc2ccccc2)cccc1-c1nc2cccnc2s1 | 4620 nM | 3410 nM | 2240 nM |  |  |  |  |
| Cc1c(NS(=O)(=O)c2cc(F)ccc2F)cccc1-c1nc2cc(-c3cnc(N)nc3)cnc2s1 | 820 nM | 80 nM | 10 nM | Active | 38400 nM | 8.8% | 31.9% |
| COc1ccc(F)cc1S(=O)(=O)Nc1cccc(-c2nc3cc(CN4CCOCC4)cnc3s2)c1C | 8540 nM | 4700 nM | 4610 nM |  |  |  |  |
| Cc1c(NS(=O)(=O)c2cc(F)ccc2F)cccc1-c1nc2cc(CN3CCN(C)CC3)cnc2s1 | 2310 nM | 770 nM | 520 nM |  |  |  |  |
| Cc1c(NS(=O)(=O)c2cc(F)ccc2F)cccc1-c1nc2cc(CN3CCCC3)cnc2s1 | 2180 nM | 520 nM | 490 nM |  |  |  |  |
| Cc1c(NS(=O)(=O)c2cc(F)ccc2F)cccc1-c1nc2cccnc2s1 | 3090 nM | 1090 nM | 1160 nM |  |  |  |  |
| Cc1c(NS(=O)(=O)c2cc(F)ccc2F)cccc1-c1nc2cc(-c3cccs3)cnc2s1 | 1330 nM | 300 nM | 110 nM |  |  |  |  |
| Cc1c(NS(=O)(=O)c2cc(F)ccc2F)cccc1-c1nc2cc(CN3CCOCC3)cnc2s1 | 2100 nM | 460 nM | 420 nM |  |  |  |  |
| COc1ncccc1-c1cnc2sc(-c3cccc(NS(=O)(=O)c4cc(F)ccc4F)c3C)nc2c1 | 920 nM | 150 nM | 40 nM |  | 37100 nM |  |  |
| Cc1c(NS(=O)(=O)c2cc(F)ccc2F)cccc1-c1nc2cc(-c3ccccc3)cnc2s1 | 1160 nM | 220 nM | 89 nM |  |  |  |  |
| CSc1ncc(-c2cnc3sc(-c4cccc(NS(=O)(=O)c5cc(F)ccc5F)c4C)nc3c2)cn1 | 800 nM | 90 nM | 10 nM |  | 44100 nM |  |  |
| Cc1c(N)cccc1-c1nc2cccnc2s1 | 29100 nM | 12700 nM | 10100 nM |  |  |  |  |
| Cc1c(NS(=O)(=O)c2cccnc2)cccc1-c1nc2cccnc2s1 | 4100 nM | 3060 nM | 2100 nM |  |  |  |  |
| CCc1cnc2sc(-c3cccc(NS(=O)(=O)c4cc(F)ccc4F)c3C)nc2c1 | 1480 nM | 420 nM | 700 nM |  |  |  |  |
| Cc1c(NS(=O)(=O)c2cc(F)ccc2F)cccc1-c1nc2cc(-c3cc[nH]n3)cnc2s1 | 1340 nM | 300 nM | 140 nM |  |  |  |  |
| COc1ccc(F)cc1S(=O)(=O)Nc1cccc(-c2nc3cc(C#N)cnc3s2)c1C | 11400 nM | 6250 nM | 6110 nM |  |  |  |  |
| CC(=O)c1ccc(-c2cnc3sc(-c4cccc(NS(=O)(=O)c5cc(F)ccc5F)c4C)nc3c2)cc1 | 1420 nM | 360 nM | 560 nM |  |  |  |  |

Second part, led by results:

| IC50 (A549) | IC50 (NCI-H1975) | IC50 (HCC827 [1]) | inhibition [5] | SMILES | IC50 [2] | Activity (HCC827 [3]) | Activity (HCC827 [4]) |
| --- | --- | --- | --- | --- | --- | --- | --- |
| 11200 nM | 6190 nM | 6010 nM |  | COc1ccc(F)cc1S(=O)(=O)Nc1cccc(-c2nc3cc(-c4cccnc4)cnc3s2)c1C |  |  |  |
| 11400 nM | 6300 nM | 6140 nM |  | COc1ccc(F)cc1S(=O)(=O)Nc1cccc(-c2nc3cc(-c4ccc(C(C)=O)cc4)cnc3s2)c1C |  |  |  |
| 8450 nM | 4560 nM | 4420 nM |  | COc1cc(-c2cnc3sc(-c4cccc(NS(=O)(=O)c5cc(F)ccc5OC)c4C)nc3c2)ccn1 |  |  |  |
| 8120 nM | 4140 nM | 4310 nM |  | COc1ccc(F)cc1S(=O)(=O)Nc1cccc(-c2nc3cc(-c4cnc(N)nc4)cnc3s2)c1C |  |  |  |
| 960 nM | 180 nM | 42 nM |  | COc1cc(-c2cnc3sc(-c4cccc(NS(=O)(=O)c5cc(F)ccc5F)c4C)nc3c2)ccn1 |  |  |  |
| 11000 nM | 6200 nM | 6080 nM |  | COc1ccc(F)cc1S(=O)(=O)Nc1cccc(-c2nc3cc(-c4ccccc4)cnc3s2)c1C |  |  |  |
| 980 nM | 220 nM | 44 nM |  | Cc1c(NS(=O)(=O)c2cc(F)ccc2F)cccc1-c1nc2cc(-c3ccc(C(F)(F)F)nc3)cnc2s1 |  |  |  |
| 9080 nM | 4720 nM | 4880 nM |  | COc1ccc(F)cc1S(=O)(=O)Nc1cccc(-c2nc3cc(-c4cccs4)cnc3s2)c1C |  |  |  |
| 8140 nM | 4380 nM | 4330 nM |  | COc1ccc(F)cc1S(=O)(=O)Nc1cccc(-c2nc3cc(-c4cncnc4)cnc3s2)c1C |  |  |  |
| 8230 nM | 4440 nM | 4360 nM |  | COc1ccc(F)cc1S(=O)(=O)Nc1cccc(-c2nc3cc(-c4ccc(C(F)(F)F)nc4)cnc3s2)c1C |  |  |  |
| 1090 nM | 340 nM | 720 nM |  | COc1cccc(-c2cnc3sc(-c4cccc(NS(=O)(=O)c5cc(F)ccc5F)c4C)nc3c2)c1 |  |  |  |
| 1210 nM | 260 nM | 92 nM |  | Cc1c(NS(=O)(=O)c2cc(F)ccc2F)cccc1-c1nc2cc(-c3cccc(C(F)(F)F)c3)cnc2s1 |  |  |  |
| 10900 nM | 6110 nM | 6020 nM |  | COc1ccc(F)cc1S(=O)(=O)Nc1cccc(-c2nc3cc(-c4cccc(C(F)(F)F)c4)cnc3s2)c1C |  |  |  |
| 8330 nM | 4500 nM | 4380 nM |  | COc1ccc(F)cc1S(=O)(=O)Nc1cccc(-c2nc3cc(-c4ccc(C#N)nc4)cnc3s2)c1C |  |  |  |
| 11700 nM | 7100 nM | 6210 nM |  | COc1cccc(-c2cnc3sc(-c4cccc(NS(=O)(=O)c5cc(F)ccc5OC)c4C)nc3c2)c1 |  |  |  |
| 9340 nM | 4890 nM | 5010 nM |  | COc1ccc(F)cc1S(=O)(=O)Nc1cccc(-c2nc3cc(-c4cc[nH]n4)cnc3s2)c1C |  |  |  |
| 8410 nM | 4550 nM | 4400 nM |  | COc1ccc(F)cc1S(=O)(=O)Nc1cccc(-c2nc3cc(-c4cccnc4OC)cnc3s2)c1C |  |  |  |
